The test system of assay [1] is Mus musculus. Kind of assay: Average change in weight in mice bearing the B16 Melanoma, when compound (20 mg/kg) was administered beginning 24 hr after tumor implantation, daily once for 6 consecutive days. Format: functional.
Assay [2] deals with Mus musculus. Put plainly: Average change in weight in mice bearing the L1210 Leukemia, when compound (10 mg/kg) was administered beginning 24 hr after tumor implantation, daily once for 6 consecutive days. Format: functional.
In assay [3] the test system is Mus musculus. Put plainly: Average change in weight in mice bearing the L1210 Leukemia, when compound (5 mg/kg) was administered beginning 24 hr after tumor implantation, daily once for 6 consecutive days. Format: functional.
In assay [4] the test system is Mus musculus. Put plainly: Average change in weight in mice bearing the L1210 Leukemia, when compound(15 mg/kg) was administered beginning 24 h after tumor implantation, daily once for 6 consecutive days. The assay is classed as functional.
Assay [5] deals with Mus musculus. Kind of assay: Average change in weight in mice bearing the B16 Melanoma, when compound (15 mg/kg) was administered beginning 24 h after tumor implantation, daily once for 6 consecutive days. The assay is classed as functional.
For assay [6], the system named is Mus musculus. Put plainly: Average change in weight in mice bearing the B16 Melanoma, when compound(10 mg/kg) was administered intraperitoneally beginning 24 hr after tumor implantation, daily once for 6 consecutive days. Format: functional.
Assay [7] deals with Mus musculus. Kind of assay: The ratio of the survival time of treated to control animals x 100 in mice bearing B16 Melanoma, when compound (15 mg/kg) was administered intraperitoneally. Format: functional.
In assay [8] the test system is Mus musculus. Kind of assay: The ratio of the survival time of treated to control animals x 100 in mice bearing B16 Melanoma, when compound (20 mg/kg) was administered intraperitoneally. Format: functional.
Assay [9] concerns Mus musculus. Put plainly: The ratio of the survival time of treated to control animals x 100 in mice bearing B16 Melanoma, when compound (5 mg/kg) was administered intraperitoneally. Format: functional.
Assay [10] deals with Mus musculus. Put plainly: The ratio of the survival time of treated to control animals x 100 in mice bearing L1210 Leukemia, when compound (10 mg/kg) was administered intraperitoneally. Format: functional.
For assay [11], the system named is Mus musculus. Put plainly: The ratio of the survival time of treated to control animals x 100 in mice bearing L1210 Leukemia, when compound (15 mg/kg) was administered intraperitoneally. Format: functional.
Assay [12] deals with Mus musculus. Kind of assay: The ratio of the survival time of treated to control animals x 100 in mice bearing L1210 leukemia, when compound (5 mg/kg) was administered intraperitoneally. The assay is classed as functional.
For assay [13], the system named is Mus musculus. Put plainly: Number of mice surviving for a period greater than 50 days when a dose of 30 mg/Kg is administered intraperitoneally; tested in 5 mice. Format: functional.
The test system of assay [14] is Mus musculus. Kind of assay: Number of mice survived for a period greater than 50 days when a dose of 20 mg/Kg is administered intraperitoneally; tested in 5 mice. The assay is classed as functional.
Assay [15] concerns L1210. Kind of assay: Number L1210 (murine leukemia) inoculated mice surviving for >50 days following 25 mg/kg i.p. Format: functional, Mus musculus. The settings on record: route intraperitoneal.
The subject of assay [16] is Mus musculus. Kind of assay: Average change in weight in mice bearing the L1210 Leukemia, when compound (15 mg/kg) was administered beginning 24 hr after tumor implantation, daily once for 6 consecutive days. The assay is classed as functional.
Assay [17] relates to Mus musculus. Put plainly: Number of mice survived for a period of greater than 50 days when a dose of 5 mg/Kg is administered intraperitoneally; tested in 5 mice. The assay is classed as functional.
Assay [18] relates to Mus musculus. Put plainly: Number of mice survived for a period of greater than 50 days when a dose of 10 mg/Kg is administered intraperitoneally; tested in 5 mice. Format: functional.
Assay [19] deals with Mus musculus. Kind of assay: Number of mice survived for a period of greater than 50 days when a dose of 15 mg/Kg is administered intraperitoneally; tested in 5 mice. The assay is classed as functional.
In assay [20] the test system is Mus musculus. Kind of assay: Average change in weight in mice bearing the B16 Melanoma, when compound(50 mg/kg) was administered intraperitoneally beginning 24 hr after tumor implantation, daily once for 6 consecutive days. Format: functional.
Assay [21] deals with Mus musculus. Kind of assay: Average change in weight in mice bearing the L1210 Leukemia, when compound (20 mg/kg) was administered once daily beginning 24 hr after tumor implantation, for 6 consecutive days. Format: functional.
Assay [22] relates to Mus musculus. Kind of assay: Average change in weight in mice bearing the L1210 Leukemia, when compound (25 mg/kg) was administered once daily beginning 24 hr after tumor implantation, for 6 consecutive days. The assay is classed as functional.
For assay [23], the system named is Mus musculus. Kind of assay: Average change in weight in mice bearing the L1210 Leukemia, when compound(30 mg/kg) was administered once daily beginning 24 hr after tumor implantation, for 6 consecutive days. The assay is classed as functional.
For assay [24], the system named is Mus musculus. Kind of assay: Average change in weight in mice bearing the B16 Melanoma, when compound(150 mg/kg) was administered beginning 24 hr after tumor implantation, daily once for 6 consecutive days. Format: functional.
Assay [25] has as its system Mus musculus. Kind of assay: Average change in weight in mice bearing the B16 Melanoma, when compound(100 mg/kg) was administered beginning 24 hr after tumor implantation, daily once for 6 consecutive days. The assay is classed as functional.
Assay [26] deals with Mus musculus. Kind of assay: The ratio of the survival time of treated to control animals x 100 in mice bearing B16 Melanoma, when compound (100 mg/kg) was administered intraperitoneally. Format: functional.
For assay [27], the system named is Mus musculus. Put plainly: The ratio of the survival time of treated to control animals x 100 in mice bearing B16 Melanoma, when compound (150 mg/kg) was administered intraperitoneally. Format: functional.
Assay [28] has as its system Mus musculus. Kind of assay: The ratio of the survival time of treated to control animals x 100 in mice bearing B16 Melanoma, when compound (50 mg/kg) was administered intraperitoneally. The assay is classed as functional.
The test system of assay [29] is L1210. Put plainly: Percentage survival time of L1210 (murine leukemia) inoculated mice following 25 mg/kg i.p. The assay is classed as functional, Mus musculus. The settings on record: route intraperitoneal.
Assay [30] has as its system L1210. Kind of assay: Percentage survival time of L1210 (murine leukemia) inoculated mice following 30 mg/kg i.p. The assay is classed as functional, Mus musculus. The settings on record: route intraperitoneal.
Assay [31] relates to L1210. Put plainly: Percentage survival time of L1210 (murine leukemia) inoculated mice following 20 mg/kg i.p. Format: functional, Mus musculus. The settings on record: route intraperitoneal.
Assay [32] has as its system Mus musculus. Put plainly: Survival of mice bearing B16 melanoma cells greater than 50 days when treated with a dose of 100 mg/Kg administered intraperitoneally; tested in 5 mice. The assay is classed as functional.
Assay [33] relates to Mus musculus. Kind of assay: Survival of mice bearing B16 melanoma cells greater than 50 days when treated with a dose of 150 mg/Kg administered intraperitoneally; tested in 5 mice. Format: functional.
Assay [34] deals with Mus musculus. Kind of assay: Survival of mice bearing B16 melanoma cells greater than 50 days when treated with a dose of 50 mg/Kg administered intraperitoneally; tested in 5 mice. Format: functional.
Assay [35] concerns Mus musculus. Kind of assay: Number of mice survived for a period of greater than 50 days when a dose of 25 mg/Kg is administered intraperitoneally; tested in 4 mice. Format: functional.

With `CS(=O)(=O)Oc1cccc2c1C(=O)C(N1CC1)=C(N1CC1)C2=O`, the Average weight is listed as -8.1% in the assay on Mus musculus [1]; -7.1% in the assay with Mus musculus [2]; 3.3% in the assay on Mus musculus [3]; -10% in the assay with Mus musculus [4]; -6.4% in the assay with Mus musculus [5]; -3.8% in the assay on Mus musculus [6]. Besides, the Activity in the assay on Mus musculus [7] is listed as 137; in the assay with Mus musculus [8], 153; in the assay on Mus musculus [9], 125; in the assay on Mus musculus [10], 185; with Mus musculus [11], 295; in the assay with Mus musculus [12] it was 130. Also, the Survivals is reported as 2 in the assay with Mus musculus [13], 0 in the assay on Mus musculus [14] and 4 in the assay on L1210 [15].
On to `O=C1C(N2CC2)=C(N2CC2)C(=O)c2c(O)cccc21`, for which the Average weight is given as -3.2% in the assay with Mus musculus [2], 6.3% in the assay on Mus musculus [3] and -0.8% in the assay on Mus musculus [16]. For the same molecule, the Activity with Mus musculus [10] is 96; in the assay with Mus musculus [11] it was 104; in the assay on Mus musculus [12], 114. The Survivals with Mus musculus [17], in the assay with Mus musculus [18] and in the assay on Mus musculus [19] was 0 throughout.
On to `COc1ccc(S(=O)(=O)Oc2cccc3c2C(=O)C(N2CC2)=C(N2CC2)C3=O)cc1`, for which the “Average body weight change” value is -4.7% in the assay with Mus musculus [20] and -2.4% in the assay with Mus musculus [22]. The “Average change in body weight” value with Mus musculus [21] was -0.1%; in the assay with Mus musculus [23], -1.3%; in the assay on Mus musculus [24], -15.2%; with Mus musculus [25], -12.4%. For the same molecule, the Activity with Mus musculus [26] is listed as 154; in the assay on Mus musculus [27], 165; in the assay with Mus musculus [28], 132; in the assay on L1210 [29] it was 222; in the assay on L1210 [30] it was 193; in the assay on L1210 [31], 175. Moreover, the Survivals in the assay on Mus musculus [32] was 0; in the assay with Mus musculus [33] it was 0; with Mus musculus [34] it was 0; with Mus musculus [35], 1; in the assay with Mus musculus [13], 3; in the assay on Mus musculus [14] it was 0.

For the origin of these results see ChEMBL document CHEMBL1124516, “Synthesis of 2,3-diaziridinyl-1,4-naphthoquinone sulfonate derivatives as potential antineoplastic agents” (1989).
